Literature values in PubChem BioAssay AID1259409 (Chemical Carcinogenesis Research Information System (CCRIS), 2018).

Tested on: rodent chemically induced tumor inhibition, incidence and multiplicity
Assay: CCRIS tumor inhibitor studies
Conditions: Promoter: NONE USED

In the case of `C[S+](C)CC(=O)[O-]`, the “tumour outcome (control, treated, inhibition, significance)” value (Carcinogen: 7,12-DIMETHYLBENZ[A]ANTHRACENE, 57-97-6, Dose [Inhibitor]: 0, 0.005 MOL/KG DIET BEGINNING 2 WK PRIOR TO CARCINOGEN AND CONTINUED FOR STUDY DURATION (STUDY DURATION: 25 WK), Route [Inhibitor]: ORAL, Species: RAT, Strain/Sex: CD-1/FEMALE, Target Tissue: Type of Lesion: MAMMARY GLAND: ADENOCARCINOMA, Dose [Carcinogen]: 10 MG ONCE) is given as 20/25 (80%), 19/25 (76%), 5%, not significant, the “tumour outcome (control, treated, inhibition, significance)” value (Carcinogen: 7,12-DIMETHYLBENZ[A]ANTHRACENE, 57-97-6, Dose [Inhibitor]: 0, 0.01 MOL/KG DIET BEGINNING 2 WK PRIOR TO CARCINOGEN AND CONTINUED FOR STUDY DURATION (STUDY DURATION: 25 WK), Route [Inhibitor]: ORAL, Species: RAT, Strain/Sex: CD-1/FEMALE, Target Tissue: Type of Lesion: MAMMARY GLAND: ADENOCARCINOMA, Dose [Carcinogen]: 10 MG ONCE) is given as 20/25 (80%), 21/25 (84%), -5%, not significant and the “tumour outcome (control, treated, inhibition, significance)” value (Carcinogen: 7,12-DIMETHYLBENZ[A]ANTHRACENE, 57-97-6, Dose [Inhibitor]: 0, 0.02 MOL/KG DIET BEGINNING 2 WK PRIOR TO CARCINOGEN AND CONTINUED FOR STUDY DURATION (STUDY DURATION: 25 WK), Route [Inhibitor]: ORAL, Species: RAT, Strain/Sex: CD-1/FEMALE, Target Tissue: Type of Lesion: MAMMARY GLAND: ADENOCARCINOMA, Dose [Carcinogen]: 10 MG ONCE) is given as 20/25 (80%), 18/25 (72%), 10%, not significant.
For `S=C=S`, the “tumour outcome (control, treated, inhibition, significance)” value (Carcinogen: 1,2-DIMETHYLHYDRAZINE, 540-73-8, Dose [Inhibitor]: 0, 250 MG/KG BW IN CORN OIL ADMINISTERED 24 AND 2 HR PRIOR TO AND 24 HR POST EACH CARCINOGEN DOSE (STUDY DURATION: 8 MO), Route [Inhibitor]: GAVAGE, Species: RAT, Strain/Sex: BD6/MALE, Target Tissue: Type of Lesion: INTESTINE: TUMOR, Dose [Carcinogen]: 20 MG/KG BW 1/WK FOR 20 WK) is given as 100%, 0%, 100%, not calculated.
For `O=S(=O)(O)CCSSCCS(=O)(=O)O`, the “tumour outcome (control, treated, inhibition, significance)” value (Carcinogen: CYCLOPHOSPHAMIDE, 50-18-0, Dose [Inhibitor]: 12 MG/KG BW IN DRINKING WATER 5/WK FOR 20 MO SIMULTANEOUSLY WITH CARCINOGEN TREATMENT (STUDY DURATION: 20 MO), Route [Inhibitor]: ORAL, Species: RAT, Strain/Sex: SPRAGUE-DAWLEY/MALE, Target Tissue: Type of Lesion: NERVOUS TISSUE: NEOPLASM, Dose [Carcinogen]: 2.5 MG/KG BW IN DRINKING WATER 5/WK FOR 20 MO) is listed as 14%, 15%, -7%, not calculated, the “tumour outcome (control, treated, inhibition, significance)” value (Carcinogen: CYCLOPHOSPHAMIDE, 50-18-0, Dose [Inhibitor]: 12 MG/KG BW IN DRINKING WATER 5/WK FOR 20 MO SIMULTANEOUSLY WITH CARCINOGEN TREATMENT (STUDY DURATION: 20 MO), Route [Inhibitor]: ORAL, Species: RAT, Strain/Sex: SPRAGUE-DAWLEY/MALE, Target Tissue: Type of Lesion: URINARY BLADDER: TUMOR, Dose [Carcinogen]: 2.5 MG/KG BW IN DRINKING WATER 5/WK FOR 20 MO) is listed as 30%, 12%, 60%, p>0.0005* and the “tumour outcome (control, treated, inhibition, significance)” value (Carcinogen: CYCLOPHOSPHAMIDE, 50-18-0, Dose [Inhibitor]: 12 MG/KG BW IN DRINKING WATER 5/WK FOR DURATION OF STUDY SIMULTANEOUSLY WITH CARCINOGEN TREATMENT (STUDY DURATION: LIFE), Route [Inhibitor]: ORAL, Species: RAT, Strain/Sex: SPRAGUE-DAWLEY/MALE, Target Tissue: Type of Lesion: URINARY BLADDER: PAPILLOMA, CARCINOMA, Dose [Carcinogen]: 2.5 MG/KG BW IN DRINKING WATER 5/WK FOR DURATION OF STUDY) is listed as 32/100 (32%), 7/50 (14%), 56%, p<0.00005*. The “tumour outcome (control, treated, inhibition, significance)” value (Carcinogen: CYCLOPHOSPHAMIDE, 50-18-0, Dose [Inhibitor]: 35 MG/KG BW IN DRINKING WATER 5/WK FOR 20 MO SIMULTANEOUSLY WITH CARCINOGEN TREATMENT (STUDY DURATION: 20 MO), Route [Inhibitor]: ORAL, Species: RAT, Strain/Sex: SPRAGUE-DAWLEY/MALE, Target Tissue: Type of Lesion: NERVOUS TISSUE: NEOPLASM, Dose [Carcinogen]: 2.5 MG/KG BW IN DRINKING WATER 5/WK FOR 20 MO) was 14%, 15%, -7%, not calculated, the “tumour outcome (control, treated, inhibition, significance)” value (Carcinogen: CYCLOPHOSPHAMIDE, 50-18-0, Dose [Inhibitor]: 35 MG/KG BW IN DRINKING WATER 5/WK FOR 20 MO SIMULTANEOUSLY WITH CARCINOGEN TREATMENT (STUDY DURATION: 20 MO), Route [Inhibitor]: ORAL, Species: RAT, Strain/Sex: SPRAGUE-DAWLEY/MALE, Target Tissue: Type of Lesion: URINARY BLADDER: TUMOR, Dose [Carcinogen]: 2.5 MG/KG BW IN DRINKING WATER 5/WK FOR 20 MO) was 30%, 6%, 80%, p>0.0005* and the “tumour outcome (control, treated, inhibition, significance)” value (Carcinogen: CYCLOPHOSPHAMIDE, 50-18-0, Dose [Inhibitor]: 35 MG/KG BW IN DRINKING WATER 5/WK FOR DURATION OF STUDY SIMULTANEOUSLY WITH CARCINOGEN TREATMENT (STUDY DURATION: LIFE), Route [Inhibitor]: ORAL, Species: RAT, Strain/Sex: SPRAGUE-DAWLEY/MALE, Target Tissue: Type of Lesion: URINARY BLADDER: PAPILLOMA, CARCINOMA, Dose [Carcinogen]: 2.5 MG/KG BW IN DRINKING WATER 5/WK FOR DURATION OF STUDY) was 32/100 (32%), 3/50 (6%), 81%, p<0.00005*.
In the case of `CC1=C(/C=C/C(C)=C/C=C/C(C)=C\C(=O)NCCCCO)C(C)(C)CCC1`, the “tumour outcome (control, treated, inhibition, significance)” value (Carcinogen: N-BUTYL-N-(4-HYDROXYBUTYL)NITROSAMINE, 3817-11-6, Dose [Inhibitor]: 1.5 MMOL/KG DIET DAILY FOR 133 D STARTING ONE WK AFTER THE FINAL CARCINOGEN DOSE (STUDY DURATION: 190 D), Route [Inhibitor]: ORAL, Species: MOUSE, Strain/Sex: BDF/MALE, Target Tissue: Type of Lesion: URINARY BLADDER: TRANSITIONAL CELL CARCINOMA, Dose [Carcinogen]: 7.5 MG 1/WK FOR 8 WK) is given as 21/100 (21%), 17/100 (17%), 20%, not significant and the “tumour outcome (control, treated, inhibition, significance)” value (Carcinogen: N-BUTYL-N-(4-HYDROXYBUTYL)NITROSAMINE, 3817-11-6, Dose [Inhibitor]: 1.5 MMOL/KG IN DIET FOR 133 D STARTING 1 WK AFTER LAST CARCINOGEN DOSE (STUDY DURATION: 190 D), Route [Inhibitor]: ORAL, Species: MOUSE, Strain/Sex: DBF1/MALE, Target Tissue: Type of Lesion: URINARY BLADDER: TRANSITIONAL CELL CARCINOMA, Dose [Carcinogen]: 7.5 MG 1/WK FOR 8 WK) is given as 21/100 (21%), 17/100 (17%), 19%, not significant.
For `CC(C)(C)c1cccc(C(C)(C)C)c1O`, the “tumour outcome (control, treated, inhibition, significance)” value (Carcinogen: BENZO[A]PYRENE, 50-32-8, Dose [Inhibitor]: 0.03 MMOL/G OF DIET DAILY STARTING 7 D BEFORE AND CONTINUING THROUGH 3 D AFTER CARCINOGEN TREATMENT FOLLOWED BY OBSERVAT, Route [Inhibitor]: ORAL, Species: MOUSE, Strain/Sex: ICR/FEMALE, Target Tissue: Type of Lesion: FORESTOMACH: NEOPLASM, Dose [Carcinogen]: 1 MG IN 0.2 ML CORN OIL 2/WK FOR 4 WK) is given as 94%, 79%, 16%, not significant.
